ChEMBL document CHEMBL1201862, “PubChem BioAssay data set” (2004)
Active and inactive are the calls of the source. Rule as the data show it: actives have a measured IC50 and inactives only a lower limit.

Molecular target: Envelope glycoprotein gp160 (Human immunodeficiency virus 1, UniProt Q6QLK5)
Test: cell-free HIV fusion peptide-binding blockers – biochemical, uHTS, fluorescence dequenching, […] (AID 1986)

Envelope glycoprotein gp160, sequence (Q6QLK5 whole entry, the tested form may be a part): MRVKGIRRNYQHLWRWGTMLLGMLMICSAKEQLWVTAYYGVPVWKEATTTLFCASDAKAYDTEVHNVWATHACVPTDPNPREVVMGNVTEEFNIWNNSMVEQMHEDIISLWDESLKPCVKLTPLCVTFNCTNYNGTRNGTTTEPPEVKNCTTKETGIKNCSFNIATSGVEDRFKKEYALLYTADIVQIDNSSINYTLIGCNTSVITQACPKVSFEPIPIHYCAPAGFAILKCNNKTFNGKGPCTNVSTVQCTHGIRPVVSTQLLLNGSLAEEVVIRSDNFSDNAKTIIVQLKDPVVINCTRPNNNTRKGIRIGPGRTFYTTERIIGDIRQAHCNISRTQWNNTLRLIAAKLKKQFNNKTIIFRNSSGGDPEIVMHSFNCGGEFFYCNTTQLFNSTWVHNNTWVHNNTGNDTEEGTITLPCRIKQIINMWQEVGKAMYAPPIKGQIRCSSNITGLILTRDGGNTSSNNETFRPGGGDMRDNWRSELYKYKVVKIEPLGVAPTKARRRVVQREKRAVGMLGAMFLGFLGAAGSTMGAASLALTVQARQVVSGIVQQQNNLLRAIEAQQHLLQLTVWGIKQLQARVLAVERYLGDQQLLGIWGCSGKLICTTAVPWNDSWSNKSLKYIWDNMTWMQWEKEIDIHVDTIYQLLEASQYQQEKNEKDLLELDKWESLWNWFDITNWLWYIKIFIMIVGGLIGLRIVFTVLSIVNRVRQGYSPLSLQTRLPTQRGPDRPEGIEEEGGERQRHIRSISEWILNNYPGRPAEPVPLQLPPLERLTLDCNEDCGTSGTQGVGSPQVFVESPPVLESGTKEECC

Question: With O=C(O)CSc1cc(C(=O)c2ccccc2O)cn2c(=O)c3c4c(sc3nc12)CCCC4 as the compound, how does the IC50 read?
Answer: 20.7 µM (active)
